Data from patent US20220402874A1, “SOLID FORMS OF OMECAMTIV MECARBIL DIHYDROCHLORIDE AND PROCESSES THEREOF” (DR. REDDY'S LABORATORIES LIMITED, priority 2019, published 2022).
Structures can show the parent of a compound that is named as a salt.

How the values were obtained:
[1] = storage stability of the solid form in a closed container (PXRD); format: physicochemical
Method: Further, the premix of amorphous solid dispersion with Soluplus is also unstable as depicted in FIG. 8.
In another aspect, the present application provides a crystalline Form OMT-D of Omecamtiv mecarbil dihydrochloride, characterized by a PXRD pattern comprising the peaks at about 12.98, 15.79, 18.55 and 25.63°±0.2° 2θ. In embodiments, the crystalline Form OMT-D of Omecamtiv mecarbil dihydrochloride is characterized by an additional peak at about 20.41°±0.2° 2θ. In embodiments, the application provides crystalline Form OMT-D of Omecamtiv mecarbil dihydrochloride, characterized by a PXRD pattern of FIG. 14. In embodiments, crystalline Form OMT-D of Omecamtiv mecarbil dihydrochloride is a solvate with dimethyl sulfoxide. In embodiments, crystalline Form OMT-D is monosolvate with dimethyl sulfoxide. In embodiments, crystalline Form OMT-D is stable for atleast 45 days stored in a closed container. In embodiments, the crystalline Form OMT-D is characterized by a thermogram of FIG. 16.

[2] = described in the '270 application; cited from earlier work

## COC(=O)N1CCN(Cc2cccc(NC(=O)Nc3ccc(C)nc3)c2F)CC1 [Form OMT-D, Omecamtiv mecarbil dihydrochloride]
[1]; stored in a closed container
  stable for at least (time stored): ≥ 45 days

## COC(=O)N1CCN(Cc2cccc(NC(=O)Nc3ccc(C)nc3)c2F)CC1 [Omecamtiv mecarbil dihydrochloride]
[1]; as depicted by PXRD in FIG. 5 / FIG. 8
  stability of amorphous state (result in words): unstable

## COC(=O)N1CCN(Cc2cccc(NC(=O)Nc3ccc(C)nc3)c2F)CC1 [anhydrous form B, Omecamtiv mecarbil dihydrochloride]
[2]
  stability of crystalline form (result in words): metastable
